Test results taken from publication PMC12498288 (Frontiers in Immunology, 2025).
“And” between values parts separate entries of the source, which are not always exact repeats. Equal values may be shown once.

Experiments:
HCoV OC43 = assay: Virus yield reduction assay, HCoV-OC43 on MRC-5 cells (RT-qPCR); type: cell-based; conditions: Betacoronavirus 1, OC43, MRC5, MOI 0.1, 24 h
Procedure: The virus yield reduction assay of HCoV-229E and HCoV-OC43 was performed on MRC-5 cells seeded at 1.5x10^5 cells per well in 24-well plates 24 h prior infection with HCoV-229E (MOI 0.001) or HCoV-OC43 (MOI 0.1) for 1 h. The inoculum was completely removed, and the cells were treated with different concentrations of zapnometinib (50 µM to 0.006 µM) and a solvent control in Iscove’s Modified Dulbecco’s Medium (IMDM) containing 2% FBS, 1% Penicillin/Streptomycin at 34°C, 5% CO2 for 24 h (HCoV-OC43) or 48 h (HCoV-229E). Supernatants were harvested and the viral titer was determined by a real-time one-step multiplex RT-qPCR using specific primers targeting the N and NS2 genes for HCoV-229E and HCoV-OC43 respectively ( Supplementary Table 1 ) EC50 values were calculated based on the measured viral titers normalized to the solvent control (1% DMSO) and using the “log(inhibitor) vs. response - Variable slope (four parameters)” analysis in GraphPad Prism v9.

[1] = test system: cytokine and chemokine levels; assay: Cytokine and chemokine levels in SARS-CoV-2-infected Syrian hamsters (serum ELISA, lung RT-qPCR); type: in vivo; conditions: 4 dpi, between groups after infection and treatment
Procedure: Eleven- to thirteen-week-old male Syrian hamsters (Janvier, France) with a body weight of 113-148 g were infected on day 0 intranasally with SARS-CoV-2 (1x10^3 median tissue culture infectious dose (TCID50) BetaCoV/Munich/BavPat1/2020) in a total volume of 0.1 mL PBS divided between the nostrils. Zapnometinib (100 mg/kg) was administered p.o. at 4 or 24 h p.i. and the animals in both groups were treated thereafter with 75 mg/kg zapnometinib once daily. The animals in the control group received vehicle (5% DMSO, 15% Kolliphor, 80% PBS) 4 h p.i. and thereafter once daily. Serum samples were collected from hamsters before infection (0 dpi) and at 4 dpi, and the levels of different cytokines and chemokines (IL1-β, TNF-α, IL-6, and IP-10) were analyzed by ELISA (Assay Genie, Ireland). […] Tetramethylbenzidine (TMB) substrate was added and the color change in the wells was used as readout for the ELISA. The optical density (OD) at 450 nm was read. Cytokine and chemokine concentrations were calculated following the manufacturer’s instructions for interpolating unknown concentrations from a standard curve.
Supplementary Figure 3. […] A. Cytokine levels in serum samples collected at 0 dpi (before infection and treatment, bottom row) and 4 dpi (top row) from vehicle-treated and zapnometinib-treated Syrian hamsters from the efficacy study analyzed by ELISA are shown. […]

[2] = test system: SARS-CoV-2 (BetaCoV/Munich/BavPat1/2020)

Compound: O=C(O)c1ccc(F)c(F)c1Nc1ccc(I)cc1Cl [zapnometinib]
- EC50 (HCoV OC43): 16.1 µM and 6.6 µg/mL
- cytokine and chemokine levels in serum (ELISA) and lung tissue (RT-qPCR) [1]: no major differences
- tolerability ([2]; 100 mg/kg then 75 mg/kg daily p.o., both groups): well tolerated
- viral titers in nasal turbinates ([2]; […], did not reach statistical significance): trend toward lower mean viral titers
- lung inflammation (infiltrating inflammatory cells, consolidation, decreased air containing space) ([2]; hamster, in vivo): less severe
- mean body weight loss ([2]; hamster, in vivo): 8-11%
- mean viral titer in throat swabs ([2]; hamster, in vivo): still lower in the throat swabs of drug-treated animals, although no statistically significant differences
- percentage of lung injury in lung tissue (gross pathology) ([2]; hamster, in vivo): significantly reduced
- reduction in replication-competent virus in throat swabs (TCID50 assay) ([2]; hamster, in vivo): 1.1 log10 and 1.3 log10
- reduction of infectious viral titer in nasal turbinates (TCID50 assay) ([2]; hamster, in vivo): 1.3 log10
- reduction of viral load in nasal turbinates (RT-qPCR) ([2]; hamster, in vivo): 1.1 log10
- viral load in throat swabs ([2]; hamster, in vivo): comparable
- viral titer reduction (number of viral copies) in throat swabs (RT-qPCR) ([2]; hamster, in vivo): 1.1 log10 and 1.2 log10
- treatment-related adverse effects ([2]; zapnometinib-treated groups vs vehicle-treated group): no treatment-related adverse effects were observed
